Experimental findings from PMC4019984, “Kinase and channel activity of TRPM6 are co-ordinated by a dimerization motif and pocket interaction” (Biochemical Journal, 2014) are described below.

Assay type in all cases: binding, human
Experiment [1] deals with GST-tagged TRPM6-(1730–end) A1836N. Kind of experiment: Peptide pull-down, A1836N mutant. The note with it: HEK-293 lysate, 3 μg peptide, 4°C, anti-GST immunoblot. As to the method: (§1) The peptides biotin-C6-[…]-TIPFTPVQLFAGEEITV (wild-type) and biotin-C6-LKSPQE-[…] (mutant) were purchased from GL Biochem. For a peptide pull-down, 1–5 mg of lysate was incubated with 3 μg of the respective peptide for 10 min at 4°C under gentle agitation, followed by 5 min of incubation with 10–20 μl of streptavidin beads at 4°C. The immunoprecipitates were washed three times with lysis buffer containing 0.15 M NaCl and then twice with buffer A. Proteins were eluted by resuspending washed immunoprecipitates in 30 μl of SDS sample buffer. […]
(§2) Figure 3 Analysis of the dimerization pocket residues (A) Structural model of TRPM6 based on TRPM7 α-kinase depicting the binding of Leu^1718 and Leu^1721 to other residues in the α-kinase domain. […] The samples were analysed by immunoblotting with anti-GST antibody (top panel). […] (C) Fluorescence polarization analysis of the dimerization motif peptide with E. coli purified GST-tagged TRPM6-(1730–end) and indicated mutants. […] Proteins were separated by SDS/PAGE, stained with Coomassie Blue (top and middle panels) and MBP phosphorylation was detected by autoradiography (bottom panel). […] Proteins were separated by SDS/PAGE, stained with Coomassie Blue (top and middle gels) and MBP phosphorylation was detected by autoradiography (bottom gel). […]
On the technique in general: A western blot detects proteins with antibodies after separation by electrophoresis.

Experiment [2] deals with GST-tagged TRPM6-(1730–end) L1919Q. Kind of experiment: Peptide pull-down, L1919Q mutant. The note with it: HEK-293 lysate, 3 μg peptide, 4°C, anti-GST immunoblot. As to the method:
as §1, §2

For experiment [3], the system named is full-length FLAG-tagged kinase-inactive TRPM6. Kind of experiment: Peptide pull-down, full-length kinase-inactive TRPM6. The note with it: full-length kinase-inactive TRPM6, HEK-293 lysate, 3 μg peptide, 4°C; anti-FLAG immunoblot. As to the method: (§3) The peptides biotin-C6-[…]-TIPFTPVQLFAGEEITV (wild-type) and biotin-C6-LKSPQE-[…] (mutant) were purchased from GL Biochem. For a peptide pull-down, 1–5 mg of lysate was incubated with 3 μg of the respective peptide for 10 min at 4°C under gentle agitation, followed by 5 min of incubation with 10–20 μl of streptavidin beads at 4°C. The immunoprecipitates were washed three times with lysis buffer containing 0.15 M NaCl and then twice with buffer A. Proteins were eluted by resuspending washed immunoprecipitates in 30 μl of SDS sample buffer.
(§4) Figure 2 Identification of dimerization motif residues in TRPM6 (A) Structural model of TRPM7 α-kinase depicting the N-terminal non-catalytic α-helix of one monomer that interacts with the kinase segment of the other monomer. (B) Fluorescence polarization analysis of wild-type (WT) and mutant (Mut) dimerization motif peptides with E. coli-purified GST-tagged TRPM6-(1730–end). […] The samples were analysed by immunoblotting with anti-GST antibody (top panel). […] Proteins were separated by SDS/PAGE, stained with Coomassie Blue (top and middle gels) and MBP phosphorylation was detected by autoradiography (bottom gel). […] Proteins were separated by SDS/PAGE, stained with Coomassie Blue (top and middle gels) and MBP phosphorylation was detected by autoradiography (bottom gel). […] The pull-down samples were analysed by immunoblotting with anti-FLAG antibody (top panel). […]

The subject of experiment [4] is full-length TRPM6 L1718A+L1721A. Kind of experiment: Peptide pull-down, full-length TRPM6 L1718A+L1721A. The note with it: full-length L1718A+L1721A TRPM6, HEK-293 lysate, 3 μg peptide, 4°C; anti-FLAG immunoblot. As to the method: as §3, §4

For the substance “biotin-C6-LKSPQEPHHHYSAIERNNLMRLSQ-TIPFTPVQLFAGEEITV [biotinylated dimerization motif peptide, biotin-C6 wild-type dimerization motif peptide; conjugated to streptavidin–Sepharose]”, the “binding to biotinylated dimerization motif peptide (pull-down)” value in experiment [1] and in experiment [2] was “abolished binding to the peptide” in each case. Also, the “interaction with biotinylated dimerization motif peptide (pull-down)” value in experiment [3] is reported as “do not interact”; in experiment [4], “rendered capable of interacting”.
